# Like-named read-outs stand apart in the source and are kept apart here.
# Key:
# [1] = test system: osteosarcoma (MG-63) cell line; test: SRB cytotoxicity assay, MG-63 cells; format: cell-based, human; settings: for inhibition of cell proliferation / cytotoxic effect (in words), MG-63: tested until 100 µM
# Experimental: (§1) Fig. 3 The effect of synthesized compounds against the highly metastatic cancer cell lines PC-3 and MG-63 cell lines after 72 h incubation and viability was assessed by the SRB assay. Values represent the mean ± SD of three independent experiments
# (§2) The SRB assay was used to evaluate the effect of the synthesized selenium containing heterocyclic compounds on cancer cells according to the previous literatures (see Supporting Information).
# (§3) The human prostate cancer cells (PC3) and human osteosarcoma cells (MG-63) were obtained from Nawah Scientific Inc. (Mokatam, Cairo, Egypt) and cultured in DMEM (Dulbecco’s modified eagle’s medium), Gibco, USA, supplemented with fetal bovine serum (FBS) at a concentration of 10% and 100 U/mL of penicillin and streptomycin (PS). The Cells were incubated at 37 °C in a humidified environment that contained 5% CO2.
# (§4) Cells were seeded in 96-well plates as aliquots of 100 μL cell suspension and incubated in a complete media for 24 h. Afterward, cells were treated with synthesized compounds at diverse concentrations ranging from 0.01 μM to 100 μM for 72 h. Then, cells were fixed at 4 °C for one hour with 150 μL of 10% trichloroacetic acid (TCA). After washing the cells five times with distilled water, 70 μL of sulforhodamine (SRB) solution (0.4% w/v) was added and incubated for 10 min at room temperature in a dark place. Cells were washed with 1% acetic acid three times and allowed to air-dry. Then, 150 μL of Tris pH 10.5 (10 mM) was added, and the absorbance was measured at 540 nm using a BMG LABTECH®- FLUOstar Omega microplate reader (Ortenberg, Germany). Half maximal inhibitory concentrations (IC50) values were calculated for each experiment using GraphPad Prism 6 software. IC50 values were reported as mean ± SD [53].
# [2] = test system: prostate cancer (PC-3) cell line; test: SRB cytotoxicity assay, PC-3 cells; format: cell-based, human; settings: for inhibition of cell proliferation / cytotoxic effect (in words), PC-3: tested until 100 µM
# Experimental: as §1, §2, §3, §4
# EGFR kinase = target: T1, EGFR kinase (Homo sapiens, UniProt P00533); test: EGFR-TK cell-free inhibitory assay; format: biochemical
# T1 construct: purchased cloud clone SEA757Hu
# T1 sequence (P00533 25-1210): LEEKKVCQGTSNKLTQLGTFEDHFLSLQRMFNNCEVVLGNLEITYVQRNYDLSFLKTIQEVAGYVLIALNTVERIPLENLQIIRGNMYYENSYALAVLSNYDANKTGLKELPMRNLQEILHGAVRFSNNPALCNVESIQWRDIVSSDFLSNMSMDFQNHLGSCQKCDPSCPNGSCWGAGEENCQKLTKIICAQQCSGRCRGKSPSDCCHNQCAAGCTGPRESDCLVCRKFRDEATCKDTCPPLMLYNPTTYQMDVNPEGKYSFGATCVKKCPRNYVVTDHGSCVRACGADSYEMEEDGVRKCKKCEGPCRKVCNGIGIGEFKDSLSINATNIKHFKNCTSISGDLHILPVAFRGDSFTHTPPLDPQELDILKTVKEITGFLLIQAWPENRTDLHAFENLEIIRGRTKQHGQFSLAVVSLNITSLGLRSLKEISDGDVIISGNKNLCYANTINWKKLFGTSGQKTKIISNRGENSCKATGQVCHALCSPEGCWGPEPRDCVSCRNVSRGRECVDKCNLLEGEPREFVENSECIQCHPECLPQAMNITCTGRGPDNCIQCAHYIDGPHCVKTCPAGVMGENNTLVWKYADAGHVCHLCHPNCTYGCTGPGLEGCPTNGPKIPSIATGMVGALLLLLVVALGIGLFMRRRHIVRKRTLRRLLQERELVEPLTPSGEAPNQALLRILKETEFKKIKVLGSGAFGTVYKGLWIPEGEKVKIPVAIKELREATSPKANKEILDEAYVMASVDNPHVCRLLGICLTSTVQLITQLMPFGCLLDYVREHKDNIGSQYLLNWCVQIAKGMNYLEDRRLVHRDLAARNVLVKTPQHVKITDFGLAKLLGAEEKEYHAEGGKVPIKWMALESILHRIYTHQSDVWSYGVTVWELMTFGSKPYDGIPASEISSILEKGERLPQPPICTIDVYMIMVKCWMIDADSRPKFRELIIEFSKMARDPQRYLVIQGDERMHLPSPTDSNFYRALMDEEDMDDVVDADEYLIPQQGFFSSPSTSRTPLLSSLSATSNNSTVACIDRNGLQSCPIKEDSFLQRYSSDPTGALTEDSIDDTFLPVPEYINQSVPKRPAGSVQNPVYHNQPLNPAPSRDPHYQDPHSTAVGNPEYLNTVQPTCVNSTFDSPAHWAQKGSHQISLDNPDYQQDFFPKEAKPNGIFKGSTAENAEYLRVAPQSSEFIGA
# Experimental: A cell-free assay was used to investigate the mechanism of inhibition of EGFR kinase according to the reported method (see Supporting Information).
# A cell-free assay was used to investigate the mechanism of inhibition of EGFR kinase according to the reported method. […] 200 µM (EGFR) was used. […] Mean values of two independent replicates for each experiment were used for the interpolation.
# [3] = Homo sapiens, MG-63, 72 h, read-out: IC50 values (µM) MG-63, SRB assay, 72 h incubation, mean ± SD
# [4] = Homo sapiens, PC-3, 72 h, read-out: IC50 values (µM) PC-3, SRB assay, 72 h incubation, mean ± SD
# [5] = read-out: IC50 values (µM) MG-63, SRB assay, 72 h incubation, mean ± SD
# [6] = read-out: IC50 values (µM) PC-3, SRB assay, 72 h incubation, mean ± SD
# [7] = Homo sapiens, MG-63, 72 h, SRB assay, 72 h incubation, mean ± SD, read-out: IC50 values (µM) MG-63
# [8] = Homo sapiens, PC-3, 72 h, SRB assay, 72 h incubation, mean ± SD, read-out: IC50 values (µM) PC-3
compound,measurement,setting,value
C[Se]c1nc(N)cc(N)c1C#N,melting point,,148 to 150 °C
N#CC[Se]c1nc(N)c(Br)c(N)c1C#N,melting point,,176 to 178 °C
N#Cc1c([Se][Se]c2nc(N)c(Sc3ccccc3)c(N)c2C#N)nc(N)c(Sc2ccccc2)c1N,melting point,,198 to 200 °C
N#Cc1c([Se][Se]c2nc(N)c(Sc3ccc(Cl)cc3)c(N)c2C#N)nc(N)c(Sc2ccc(Cl)cc2)c1N,melting point,,236 to 238 °C
"N#Cc1[se]c2nc(N)cc(N)c2c1N [Compound 2, 3,4,6-triamino-2-cyanoselenopheno[2,3-b]pyridine]",IC50,[1]; [3],> 100 µM
same,"inhibition of cell proliferation / cytotoxic effect (in words), MG-63",[1]; SRB assay,without significant inhibition of cell proliferation
same,melting point,,258 to 260 °C
same,IC50,[2]; [4],> 100 µM
same,"inhibition of cell proliferation / cytotoxic effect (in words), PC-3",[2]; SRB assay,without significant inhibition of cell proliferation
CN(C)c1cc(N)c(C#N)c([Se][Se]c2nc(N(C)C)cc(N)c2C#N)n1 [Compound 4],IC50,[1]; [3],240 ± 3.2 µM
same,"inhibition of cell proliferation / cytotoxic effect (in words), MG-63",[1]; SRB assay,without significant inhibition of cell proliferation
same,melting point,,172 to 174 °C
same,IC50,[2]; [4],233 ± 2.6 µM
same,"inhibition of cell proliferation / cytotoxic effect (in words), PC-3",[2]; SRB assay,without significant inhibition of cell proliferation
"N#Cc1[se]c2nc(N)c(Br)c(N)c2c1N [Compound 7, 3,4,6-triamino-5-bromoselenopheno[2,3-b]pyridine-2-carbonitrile]",IC50,[1]; [3],> 100 µM
same,"inhibition of cell proliferation / cytotoxic effect (in words), MG-63",[1]; SRB assay,without significant inhibition of cell proliferation
same,melting point,,268 to 270 °C
same,IC50,[2]; [4],> 100 µM
same,"inhibition of cell proliferation / cytotoxic effect (in words), PC-3",[2]; SRB assay,without significant inhibition of cell proliferation
"Nc1nc2[se]c(-c3nc4ccccc4s3)c(N)c2c(N)c1Br [Compound 9, 2-(benzo[d]thiazol-2-yl)-5-bromo-selenopheno[2,3-b]-pyridine-3,4,6-triamine]",IC50,[1]; [3],62.8 ± 3.45 µM
same,"inhibition of cell proliferation / cytotoxic effect (in words), MG-63",[1]; SRB assay,low cytotoxic effects
same,IC50,[2]; [4],51.1 ± 3 µM
same,"inhibition of cell proliferation / cytotoxic effect (in words), PC-3",[2]; SRB assay,low cytotoxic effects
"CC(=O)Nc1cc2c3c(c(C#N)[se]c3n1)N=C(C)N2 [Compound 11, N-(2-cyano-4-methyl-5H-1-seleno-3,5,8-triazaacenaphthylen-7-yl)acetamide]",IC50,[1]; [3],62.2 ± 1.51 µM
same,"inhibition of cell proliferation / cytotoxic effect (in words), MG-63",[1]; SRB assay,low cytotoxic effects
same,IC50,[2]; [4],34.7 ± 0.77 µM
same,"inhibition of cell proliferation / cytotoxic effect (in words), PC-3",[2]; SRB assay,low cytotoxic effects
"N#Cc1[se]c2nc(N)c(N=Nc3ccccc3)c(N)c2c1N [Compound 12a, 3,4,6-Triamino-5-[phenyldiazenyl]selenopheno[2,3-b]pyridine-2-carbonitrile]",IC50,[1]; [3],< 4 µM
same,IC50,[1]; [5],3.45 ± 0.2 µM
same,IC50,[2]; [4],< 4 µM
same,IC50,[2]; [6],2.69 ± 0.03 µM
same,IC50,EGFR kinase,0.301 ± 0.012 µM
"Cc1ccc(N=Nc2c(N)nc3[se]c(C#N)c(N)c3c2N)cc1 [Compound 12b, 3,4,6-Triamino-5-(4-methylphenyl)diazenylselenopheno[2,3-b]pyridine-2-carbonitrile]",IC50,[1]; [3],< 4 µM
same,IC50,[1]; [5],3.37 ± 0.22 µM
same,IC50,[2]; [4],< 4 µM
same,IC50,[2]; [6],2.59 ± 0.02 µM
same,IC50,EGFR kinase,0.123 ± 0.004 µM
"COc1ccc(N=Nc2c(N)nc3[se]c(C#N)c(N)c3c2N)cc1 [Compound 12c, 3,4,6-Triamino-5-[(4-methoxyphenyl)diazenyl]selenopheno[2,3-b]pyridine-2-carbonitrile]",IC50,[1]; [3],< 4 µM
same,IC50,[1]; [5],3.37 ± 0.12 µM
same,IC50,[2]; [4],< 4 µM
same,IC50,[2]; [6],2.75 ± 0.09 µM
"N#Cc1[se]c2nc(N)c(N=Nc3ccc(Cl)cc3)c(N)c2c1N [Compound 12d, 3,4,6-Triamino-5-[(4-chlorophenyl)diazenyl]selenopheno[2,3-b]pyridine-2-carbonitrile]",IC50,[1]; [3],< 4 µM
same,IC50,[1]; [5],3.93 ± 0.23 µM
same,IC50,[2]; [4],< 4 µM
same,IC50,[2]; [6],3.08 ± 0.01 µM
"COc1cccc2c1C(=O)c1c(O)c3c(c(O)c1C2=O)C[C@@](O)(C(=O)CO)C[C@@H]3O[C@H]1C[C@H](N)[C@H](O)[C@H](C)O1 [DOX, doxorubicin, reference compound]",IC50,[1]; [7],9.4 ± 1.1 µM
same,IC50,[2]; [8],7.6 ± 0.45 µM
"CS(=O)(=O)CCNCc1ccc(-c2ccc3ncnc(Nc4ccc(OCc5cccc(F)c5)c(Cl)c4)c3c2)o1 [Lapatinib, lapatinib, reference compound]",IC50,[1]; [7],0.47 ± 0.03 µM
same,IC50,[2]; [8],0.13 ± 0.04 µM
